The source of these data is ChEMBL document CHEMBL1146708, “4-Amino cyclohexylglycine analogues as potent dipeptidyl peptidase IV inhibitors” (Bioorg Med Chem Lett, 2004).

Bounds are passed on as bounds.

Series [1] is described as follows: Plasma clearance in rats. The following applies: rat, read-out: Clp. The series is classed as ADME, organism-based.
A short description of series [2]: Oral bioavailability in rat. The note with it: in vivo. It is filed as ADME, organism-based.
Series [3] can be described thus: Half life in rats. It is filed as ADME, organism-based. The note with it: rat, in vivo.
Series [4] is described as follows: Clearance in dogs. It is filed as ADME, organism-based, Canis lupus familiaris. The following applies: dog, in vivo.
For another series, the species on record is Mus musculus. The experiment in a line: Compound (3 mpk) was tested for reduction in glucose excursion in mice by using oral glucose tolerance test (OGTT) after 1 hour. It is filed as functional.
Series [5] in a line: Oral bioavailability (F) in dogs. It is filed as ADME, organism-based, Canis lupus familiaris. The following applies: dog, in vivo.
A short description of series [6]: Half life in dogs. It is filed as ADME, organism-based, Canis lupus familiaris. The note with it: dog, in vivo.
The target of another series is Dipeptidyl peptidase 2 (Homo sapiens, UniProt Q9UHL4). The experiment in a line: Inhibitory activity against quiescent cell prolyl peptidase (QPP).
Another series deals with Dipeptidyl peptidase 4 (Homo sapiens, UniProt P27487).
Chain of Dipeptidyl peptidase 4 (P27487 whole entry): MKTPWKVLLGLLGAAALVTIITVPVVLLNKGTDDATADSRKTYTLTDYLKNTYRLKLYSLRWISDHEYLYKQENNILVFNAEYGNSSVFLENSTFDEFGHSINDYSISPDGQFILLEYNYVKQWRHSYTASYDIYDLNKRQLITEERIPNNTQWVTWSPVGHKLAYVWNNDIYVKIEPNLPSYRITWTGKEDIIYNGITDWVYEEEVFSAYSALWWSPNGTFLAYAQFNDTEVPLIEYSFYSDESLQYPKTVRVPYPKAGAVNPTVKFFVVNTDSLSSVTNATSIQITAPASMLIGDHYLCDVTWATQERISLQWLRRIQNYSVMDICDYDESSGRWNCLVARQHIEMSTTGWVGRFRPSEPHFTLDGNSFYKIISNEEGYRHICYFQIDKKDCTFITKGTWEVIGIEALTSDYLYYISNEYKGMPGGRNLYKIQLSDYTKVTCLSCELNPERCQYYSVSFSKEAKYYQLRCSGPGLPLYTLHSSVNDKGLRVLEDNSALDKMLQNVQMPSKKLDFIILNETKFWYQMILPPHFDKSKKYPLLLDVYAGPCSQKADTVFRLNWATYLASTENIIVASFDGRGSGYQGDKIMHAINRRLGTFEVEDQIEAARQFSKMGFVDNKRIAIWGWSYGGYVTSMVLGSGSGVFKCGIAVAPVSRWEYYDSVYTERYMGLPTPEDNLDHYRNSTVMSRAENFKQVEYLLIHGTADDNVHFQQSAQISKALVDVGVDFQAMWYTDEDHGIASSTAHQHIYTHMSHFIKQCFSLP
For series [7], the target named is Voltage-gated inwardly rectifying potassium channel KCNH2 (Homo sapiens, UniProt Q12809). Briefly: Binding affinity for Potassium channel HERG Kv11.1.
Chain of Voltage-gated inwardly rectifying potassium channel KCNH2 (Q12809 whole entry): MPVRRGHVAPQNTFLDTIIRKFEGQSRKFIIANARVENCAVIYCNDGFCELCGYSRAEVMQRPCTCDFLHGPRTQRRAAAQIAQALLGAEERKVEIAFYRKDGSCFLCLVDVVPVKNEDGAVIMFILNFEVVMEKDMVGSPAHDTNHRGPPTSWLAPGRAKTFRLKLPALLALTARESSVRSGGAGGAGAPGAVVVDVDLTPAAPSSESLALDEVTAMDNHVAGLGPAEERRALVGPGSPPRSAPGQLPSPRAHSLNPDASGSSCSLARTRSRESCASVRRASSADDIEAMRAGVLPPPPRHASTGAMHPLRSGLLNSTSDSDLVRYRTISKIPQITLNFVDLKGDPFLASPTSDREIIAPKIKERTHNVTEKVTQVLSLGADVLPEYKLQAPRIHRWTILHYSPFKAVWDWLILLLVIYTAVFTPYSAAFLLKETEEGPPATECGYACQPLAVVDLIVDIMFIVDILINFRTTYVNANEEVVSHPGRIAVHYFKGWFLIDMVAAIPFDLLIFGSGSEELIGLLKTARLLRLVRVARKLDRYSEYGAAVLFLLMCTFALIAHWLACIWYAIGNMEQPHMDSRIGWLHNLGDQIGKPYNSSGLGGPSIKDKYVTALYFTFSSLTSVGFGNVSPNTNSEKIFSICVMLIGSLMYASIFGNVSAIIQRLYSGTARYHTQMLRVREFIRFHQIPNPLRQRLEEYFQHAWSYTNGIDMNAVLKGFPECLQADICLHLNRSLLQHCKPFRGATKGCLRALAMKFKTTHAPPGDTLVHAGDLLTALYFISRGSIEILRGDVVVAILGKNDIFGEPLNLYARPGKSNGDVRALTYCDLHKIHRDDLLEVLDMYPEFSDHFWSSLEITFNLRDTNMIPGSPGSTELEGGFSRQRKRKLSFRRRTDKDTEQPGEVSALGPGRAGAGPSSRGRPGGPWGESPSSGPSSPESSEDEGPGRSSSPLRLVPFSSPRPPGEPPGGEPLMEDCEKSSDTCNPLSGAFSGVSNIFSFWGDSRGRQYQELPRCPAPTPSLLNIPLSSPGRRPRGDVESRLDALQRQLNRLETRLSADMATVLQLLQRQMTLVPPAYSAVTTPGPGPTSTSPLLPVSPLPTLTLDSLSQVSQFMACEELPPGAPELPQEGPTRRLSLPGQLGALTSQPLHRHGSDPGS

`N[C@H](C(=O)N1CCSC1)[C@H]1CC[C@H](NC(=O)c2ccc(F)c(F)c2)CC1`: in series [1], the clearance amounted to 30 mL/min/kg. In [2], the bioavailability – broadly, dose-corrected exposure relative to a reference, in per cent – was 81%. Besides, the half-life (as a rule, the time in which the quantity being followed falls by half) in series [3] was 2 h.
For `N[C@H](C(=O)N1CCCC1)[C@H]1CC[C@H](NC(=O)OCc2ccccc2)CC1` the same measures were 28 mL/min/kg, 52% and 4 h.
On the same counts, the results for `N[C@H](C(=O)N1CCCC1)[C@H]1CC[C@H](NS(=O)(=O)c2ccc(OC(F)(F)F)cc2)CC1` are 31 mL/min/kg, 38% and 3.6 h.
On the same counts, the results for `N[C@H](C(=O)N1CCSC1)[C@H]1CC[C@H](NS(=O)(=O)c2ccc(OC(F)(F)F)cc2)CC1` are 21 mL/min/kg, 85% and 4.7 h.
`N[C@H](C(=O)N1CCCC1)[C@H]1CC[C@H](NS(=O)(=O)c2ccc(F)cc2F)CC1`: the values for the clearance in [4] and in series [1] were 14 mL/min/kg and 53 mL/min/kg, respectively. In addition, the bioavailability turned out to be 36% in [2] and 100% in series [5]. For the same compound, in the series listed under Mus musculus, the Reduction stood at 36%. Moreover, the results for the half-life in series [6] and in [3] were 6 h and 1.8 h, respectively.
As for `N[C@H](C(=O)N1CCSC1)[C@H]1CC[C@H](NS(=O)(=O)c2ccc(I)cc2)CC1`, the 50% inhibitory concentration (IC50) – broadly, the concentration that gives 50% inhibition – against Dipeptidyl peptidase 2 amounted to 280 nM; against Dipeptidyl peptidase 4, 23 nM.
For `N#Cc1cccc(S(=O)(=O)N[C@H]2CC[C@H]([C@H](N)C(=O)N3CCSC3)CC2)c1` the same measures were 820 nM and 24 nM.
On the same counts, the results for `CN(C)C(=O)Nc1ccc(S(=O)(=O)N[C@H]2CC[C@H]([C@H](N)C(=O)N3CCSC3)CC2)cc1` are 2000 nM and 7.5 nM.
As for `CN(C)C(=O)Nc1ccc(S(=O)(=O)N[C@H]2CC[C@H]([C@H](N)C(=O)N3CCCC3)CC2)cc1`, the 50% inhibitory concentration (IC50) stood at 12000 nM against Dipeptidyl peptidase 2 and 26 nM at Dipeptidyl peptidase 4. Further, in series [1], the clearance came out at 21 mL/min/kg. This compound returned a bioavailability in series [2] of 1%. Further, in [3], the half-life is 2.4 h.
With `N[C@H](C(=O)N1CCSC1)[C@H]1CC[C@H](NC(=O)Nc2ccc(F)c(F)c2)CC1`, the IC50 worked out at 380 nM at Dipeptidyl peptidase 2 and 35 nM at Dipeptidyl peptidase 4.
Regarding `N[C@H](C(=O)N1CCCC1)[C@H]1CC[C@H](NS(=O)(=O)c2ccc(F)c(F)c2F)CC1`, the IC50 against Dipeptidyl peptidase 2 turned out to be 8200 nM; against Dipeptidyl peptidase 4, 98 nM.
`N[C@H](C(=O)N1CCSC1)[C@H]1CC[C@H](NS(=O)(=O)c2ccc3ccccc3c2)CC1`: the IC50 at Dipeptidyl peptidase 2 was 170 nM; at Dipeptidyl peptidase 4 it was 18 nM.
Consider `N[C@H](C(=O)N1CCSC1)[C@H]1CC[C@H](NS(=O)(=O)c2ccc(F)c(F)c2F)CC1`, for which the IC50 on Dipeptidyl peptidase 2 stood at 960 nM; on Dipeptidyl peptidase 4, 24 nM.
Consider `N[C@H](C(=O)N1CCCC1)[C@H]1CC[C@H](NC(=O)c2cccc3ccccc23)CC1`, for which the IC50 at Dipeptidyl peptidase 2 was found to be 8600 nM; against Dipeptidyl peptidase 4 it was 46 nM. Moreover, the affinity in [7], expressed as Ki, was 17000 nM. In addition, the clearance in series [1] worked out at 13 mL/min/kg. Besides, the bioavailability in series [2] came to 30%. The compound further showed a half-life in series [3] of 2.3 h.
`N[C@H](C(=O)N1CCSC1)[C@H]1CC[C@H](N)CC1` gave an IC50 against Dipeptidyl peptidase 4 of 2700 nM.
For `N[C@H](C(=O)N1CCSC1)[C@H]1CC[C@H](NC(=O)c2ccc(Cl)c(Cl)c2)CC1`, the figures for the IC50 at Dipeptidyl peptidase 2 and on Dipeptidyl peptidase 4 were 230 nM and 38 nM, respectively.
On the same counts, the results for `N[C@H](C(=O)N1CCSC1)[C@H]1CC[C@H](NC(=O)c2ccc(I)cc2)CC1` are 340 nM and 33 nM.
For `N[C@H](C(=O)N1CCSC1)[C@H]1CC[C@H](NC(=O)c2ccc3ccccc3c2)CC1` the same measures were 230 nM and 21 nM.
Turning to `N[C@H](C(=O)N1CCSC1)[C@H]1CC[C@H](NC(=O)c2cccc3ccccc23)CC1`, the concentration for half-maximal inhibition (IC50) at Dipeptidyl peptidase 2 worked out at 900 nM; against Dipeptidyl peptidase 4, 15 nM. Also, the affinity in series [7] corresponds to a Ki of 22000 nM. Moreover, the clearance in series [1] came out at 22 mL/min/kg. The same compound displayed a bioavailability in series [2] of 51%. For the same compound, the half-life in series [3] is 1.2 h.
Consider `N[C@H](C(=O)N1CCSC1)[C@H]1CC[C@H](NC(=O)OCc2ccc(Cl)c(Cl)c2)CC1`, for which the IC50 at Dipeptidyl peptidase 2 stood at 170 nM; against Dipeptidyl peptidase 4, 29 nM.
On the same counts, the results for `N[C@H](C(=O)N1CCSC1)[C@H]1CC[C@H](NC(=O)OCc2ccc3ccccc3c2)CC1` are 200 nM and 20 nM.
Consider `N[C@H](C(=O)N1CCSC1)[C@H]1CC[C@H](NC(=O)OCc2cccc3ccccc23)CC1`, for which the figures for the IC50 against Dipeptidyl peptidase 2 and on Dipeptidyl peptidase 4 were 170 nM and 17 nM, respectively.
Turning to `N[C@H](C(=O)N1CCSC1)[C@H]1CC[C@H](NC(=O)Nc2ccc(I)cc2)CC1`, the figures for the IC50 against Dipeptidyl peptidase 2 and on Dipeptidyl peptidase 4 were 210 nM and 10 nM, respectively. The affinity in [7] corresponds to a Ki of 1900 nM. Further, the clearance in series [1] is 74 mL/min/kg. In series [2], the bioavailability was 12%. This compound had a half-life in [3] of 2.3 h.
As to `N[C@H](C(=O)N1CCSC1)[C@H]1CC[C@H](NC(=O)Nc2ccc(Cl)c(Cl)c2)CC1`, the 50% inhibitory concentration (IC50) against Dipeptidyl peptidase 2 amounted to 170 nM; against Dipeptidyl peptidase 4, 17 nM.
For `N[C@H](C(=O)N1CCSC1)[C@H]1CC[C@H](NC(=O)Nc2ccc(OC(F)(F)F)cc2)CC1` the same measures were 350 nM and 55 nM.
For `N[C@H](C(=O)N1CCSC1)[C@H]1CC[C@H](NC(=O)c2cnc3ccccc3c2)CC1` the same measures were 230 nM and 9 nM.
At Dipeptidyl peptidase 2, `N[C@H](C(=O)N1CCCC1)[C@H]1CC[C@H](NS(=O)(=O)c2ccc(NS(=O)(=O)CC(F)(F)F)cc2)CC1` came in with an IC50 of 15000 nM. The Ki – broadly, a dissociation constant, usually derived from enzyme kinetics or from competition with a known ligand – in series [7] is above 100000 nM. Moreover, in series [1], the clearance came out at 95 mL/min/kg. This compound displayed a bioavailability in series [2] of 0%. For the same compound, in series [3], the half-life is 0.1 h.
In turn, `N#Cc1ccc(NCCNCC(=O)N2CCC[C@H]2C#N)nc1` gave an IC50 against Dipeptidyl peptidase 2 of 6600 nM.
